# Results filed as inconclusive are left out. The source made the active and inactive calls.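 Rule for the calls: active = Compounds that reduce signal, with fitted half-maximal dose at or under twice the top valid tested dose; inconclusive = Poor fit, or flat curve losing 30 to 70% of signal; inactive = Potency past limit, flat within 30%, or opposite direction.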
# Test: HEK293T cell cytotoxicity, dose response, cytotoxicity control, ATP luminescence, cherry-pick samples (AID 687005)
# Details: HEK293T viability, ATP luminescence (CellTiter-Glo), 48 h; at 21 µM (top of the series)
row,SMILES,"activity change, negative = cytotoxicity"
1,Cc1ccc(S(=O)(=O)N[C@@H]2CCCN(Cc3cccc(OCCO)c3)C2)cc1,0.167% (inactive)

# Same assay, conditions: HEK293T viability, ATP luminescence (CellTiter-Glo), 48 h; at 23.5 µM (top of the series)
row,SMILES,"activity change, negative = cytotoxicity"
1,O=C(NC[C@@H]1[C@@H](c2ccccc2)[C@H](CO)N1C(=O)C1CCC1)NC1CCCC1,-9.04% (inactive)
2,C[C@@H]1CN([C@@H](C)CO)C(=O)CCCn2nncc2CO[C@H]1CN(C)C(=O)Oc1cccc2ccccc12,17.9% (inactive)
3,C[C@H](CO)N1C[C@H](C)[C@H](CN(C)CC2CCCCC2)Oc2ccc(NC(=O)Nc3ccc4c(c3)OCO4)cc2C1=O,-3.46% (inactive)
4,N#Cc1ccc(-c2ccc3c(c2)[C@@H]2[C@@H](CCN2C(=O)Cc2ccccc2)[C@@H](CO)N3)cc1,-19.6% (inactive)

# Same assay, conditions: HEK293T viability, ATP luminescence (CellTiter-Glo), 48 h; at 26 µM (top of the series)
row,SMILES,"activity change, negative = cytotoxicity"
1,O=C(NC1CCCCC1)N[C@@H]1CC[C@@H](CCNS(=O)(=O)c2ccc(Cl)cc2)O[C@H]1CO,45.5% (inactive)
2,COc1cccc(NC(=O)CN2CCN(S(=O)(=O)c3ccc(C(C)C)cc3)CC2)c1,35.1% (inactive)
3,O=C(NCCc1ccccc1)[C@@H]1[C@@H](CO)[C@@H]2Cn3c(cccc3=O)[C@H]1N2C(=O)C1CCC1,8.28% (inactive)
4,CC(C)CC#Cc1ccc2c(c1)O[C@@H](CN(C)C(=O)C1CCC1)[C@@H](C)CN([C@H](C)CO)S2(=O)=O,1.96% (inactive)
5,CC(C)NC(=O)N(C)C[C@@H]1Oc2c(NC(=O)C3CCCCC3)cccc2C(=O)N([C@@H](C)CO)C[C@@H]1C,24.4% (inactive)
6,O=C(O)C[C@@H]1CC[C@@H]2[C@H](COC[C@H](O)CN2S(=O)(=O)c2ccc(F)cc2)O1,-25.9% (inactive)
7,CCNC(=O)CN(c1ccc(Cl)cc1)S(=O)(=O)c1ccccc1,4.12% (inactive)
8,COc1cc(CO)cc(I)c1O[C@H]1C=C(C(=O)NCCO)C[C@@H](N(CC2CCCCC2)C(=O)c2cc3ccccc3oc2=O)[C@@H]1O,29.4% (inactive)
9,CC(C)CC#Cc1cnc2c(c1)C(=O)N([C@@H](C)CO)C[C@H](C)[C@H](CN(C)C(=O)c1ccc3c(c1)OCO3)O2,16.5% (inactive)
10,C[C@H]1CN([C@@H](C)CO)C(=O)c2cc(-c3ccccc3)cnc2O[C@@H]1CN(C)C(=O)c1ccccn1,19% (inactive)
11,CCC(C)(C(=O)NC1CCCCC1)N(C(=O)C1CCC(=O)N1)c1ccccc1 (centres undefined),0.147% (inactive)
12,CCCNC(=O)Nc1ccc2c(c1)C(=O)N(C)C[C@@H](OC)[C@@H](C)CN(C(=O)CC)[C@H](C)CO2,-2.92% (inactive)
13,CC(C)NC(=O)N[C@H]1CC[C@@H](CCNC(=O)C2CC2)O[C@@H]1CO,-21.3% (inactive)
14,C[C@H]1CN([C@@H](C)CO)C(=O)Cc2cc(NS(=O)(=O)c3cn(C)cn3)ccc2O[C@@H]1CN(C)Cc1ccc(Oc2ccccc2)cc1,28.9% (inactive)
15,COc1ccccc1NC(=S)NCc1ccc(Cl)cc1,-4.64% (inactive)
16,COc1ccc(CN(C)C[C@@H]2Oc3c(NC(=O)Nc4cccc5ccccc45)cccc3C(=O)N([C@@H](C)CO)C[C@@H]2C)cc1,-9.75% (inactive)
17,CNC[C@@H]1OCCCC[C@H](C)Oc2ccc(NC(=O)Nc3ccc(F)cc3)cc2C(=O)N([C@@H](C)CO)C[C@H]1C,28.7% (inactive)
18,COc1ccc(NC(=O)Nc2ccc3c(c2)C(=O)N([C@H](C)CO)C[C@@H](C)[C@@H](CN(C)C(=O)CCC(F)(F)F)OCCCC[C@H](C)O3)cc1,-34.4% (inactive)
19,C[C@H]1CN([C@@H](C)CO)C(=O)c2cc(NC(=O)CCN3CCOCC3)ccc2O[C@@H]1CN(C)Cc1ccc(C(=O)O)cc1,36.2% (inactive)
20,O=C(NC1CCCC1)N1CCCCN2[C@H](CO)[C@@H](c3ccc(-c4cncnc4)cc3)[C@H]2C1,41.2% (inactive)
21,Cc1cccc(C)c1NC(=O)C(CCc1ccccc1)N1CCC(c2ccccc2)CC1 (centres undefined),-63.1% (inactive)
22,CC(=O)N(C)C[C@H]1Oc2cc(C#Cc3ccc(F)cc3)ccc2S(=O)(=O)N([C@H](C)CO)C[C@@H]1C,53% (inactive)
23,Cc1cccc(-c2ccc([C@H]3[C@H](CO)N4CCCCN(C(=O)c5ccc6c(c5)OCO6)C[C@@H]34)cc2)c1,70.3% (inactive)
24,C[C@H](CO)N1C[C@H](C)[C@@H](CN(C)C(=O)c2cccc(F)c2)Oc2cc(-c3cncnc3)ccc2S1(=O)=O,-22.6% (inactive)
25,COc1ccccc1NC(=O)N[C@@H]1CC[C@H](CCn2cc(-c3ccccc3OC)nn2)O[C@H]1CO,-11.8% (inactive)

row,SMILES,"activity change, negative = cytotoxicity"
1,COc1cccc(S(=O)(=O)Nc2ccc3c(c2)OC[C@@H](C)NC[C@H](C)[C@@H](OC)CN(C)C3=O)c1,-6.17% (inactive)
2,CC(C)NC(=O)Nc1ccc2c(c1)C(=O)N([C@@H](C)CO)C[C@@H](C)[C@H](CN(C)C(=O)c1ccncc1)OCCCC[C@H](C)O2,23.3% (inactive)
3,CN1C(=O)N[C@@H]2c3ccccc3O[C@@]1(C)[C@@H]2COC(=O)c1ccccc1,-8.64% (inactive)
4,Cc1noc(C)c1S(=O)(=O)Nc1ccc2c(c1)C(=O)N([C@H](C)CO)C[C@H](C)[C@H](CN(C)Cc1ccncc1)O2,37.8% (inactive)
5,O=C(C[C@H]1C=C[C@H](NC(=O)C2CCC2)[C@@H](CO)O1)NC1CCC1,-2.82% (inactive)
6,Cc1noc(C)c1NC(=O)Nc1ccc2c(c1)C(=O)N([C@@H](C)CO)C[C@H](C)[C@H](CN(C)S(=O)(=O)c1ccc(Cl)cc1)O2,8.28% (inactive)
7,COc1ccc(NC(=O)N(C)C[C@H]2OCCCC[C@@H](C)Oc3ccc(N(C)C)cc3C(=O)N([C@H](C)CO)C[C@H]2C)cc1,-1% (inactive)
8,Fc1cccc(CCN2C(=S)NC[C@@H]2Cc2ccccc2)c1,-28.1% (inactive)
9,C[C@H](CO)N1C[C@H](C)[C@@H](CN(C)CC2CCOCC2)Oc2ncc(C#Cc3ccc(F)cc3)cc2C1=O,-11.1% (inactive)
10,COc1ccc(-n2ncc3c(SCC(=O)OC(C)C)ncnc32)cc1,-5.94% (inactive)
11,C[C@@H]1CCCCO[C@@H](CN(C)C(=O)Nc2cccc3ccccc23)[C@@H](C)CN([C@H](C)CO)C(=O)c2cc(NS(=O)(=O)c3ccccc3)ccc2O1,6.51% (inactive)
12,C[C@@H]1CN([C@@H](C)CO)C(=O)c2cc(/C=C/c3ccccc3)cnc2O[C@@H]1CN(C)S(C)(=O)=O,10.2% (inactive)
13,COCC(=O)NC[C@@H]1N[C@@H](CO)[C@H]1c1ccc(C2=CCCC2)cc1,26.4% (inactive)
14,C[C@@H]1CCCCO[C@H](CN(C)Cc2ccncc2)[C@@H](C)CN([C@H](C)CO)C(=O)c2cc(N(C)C)ccc2O1,-3.32% (inactive)
15,C[C@H](O)C#Cc1ccc2c(c1)O[C@H](CN(C)Cc1ccncc1)[C@H](C)CN([C@H](C)CO)S2(=O)=O,29.2% (inactive)
16,O=C(CSc1ncnc2c1cnn2-c1ccc(Cl)cc1)NCc1ccc2c(c1)OCO2,-9.56% (inactive)
17,CCc1ccc(C(C)NC(=S)NCc2ccc(F)cc2)cc1 (centres undefined),17.2% (inactive)
18,O=C(C[C@@H]1CC[C@H]2[C@@H](COC[C@H](O)CN2Cc2ccccc2F)O1)NC1CCC1,-8.5% (inactive)
19,C[C@@H]1CN([C@@H](C)CO)C(=O)c2cccc(NS(=O)(=O)c3ccc(F)cc3)c2O[C@H]1CN(C)S(=O)(=O)c1ccc(Cl)cc1,-22.8% (inactive)
20,CO[C@H]1CN(C)C(=O)c2ccc(NC(=O)C3CC3)cc2OC[C@@H](C)N(Cc2ccc(F)cc2)C[C@@H]1C,37.9% (inactive)
21,O=C(c1cccc(F)c1)N1C[C@H]2[C@@H](c3ccccc31)[C@@H](CO)N2Cc1cocn1,-0.298% (inactive)
22,N#Cc1ccc(C23CC4(C2)[C@H](CN(Cc2ccc(C(F)(F)F)cc2)[C@@H]4c2ccccc2)C3c2ccc(C(F)(F)F)cc2)cc1 (some centres undefined),10.4% (inactive)
23,Cc1ccc(S(=O)(=O)N[C@@H]2CC[C@H](CCNC(=O)C3CCCC3)O[C@@H]2CO)cc1,-17.8% (inactive)
24,O=C(C[C@H]1C=C[C@H](NC(=O)Nc2cc(F)ccc2F)[C@@H](CO)O1)NCCCN1CCOCC1,27.4% (inactive)
25,CCCNC(=O)N(C)C[C@@H]1Oc2ncc(C#CCc3ccccc3)cc2C(=O)N([C@@H](C)CO)C[C@@H]1C,12% (inactive)

# Same assay, conditions: HEK293T viability, ATP luminescence (CellTiter-Glo), 48 h; at 28.5 µM (top of the series)
row,SMILES,"activity change, negative = cytotoxicity"
1,CNC(=O)CN(c1ccccc1)S(=O)(=O)c1ccc(F)cc1,-7.63% (inactive)
2,C[C@@H]1CN([C@@H](C)CO)C(=O)CCCn2cc(nn2)CO[C@@H]1CN(C)C(=O)CCCN(C)C,6.9% (inactive)
3,COC(=O)C1=C(C)N(Cc2ccc(F)cc2)C(=S)NC1c1ccccc1 (centres undefined),17.5% (inactive)

# Same assay, conditions: HEK293T viability, ATP luminescence (CellTiter-Glo), 48 h; at 30 µM (top of the series)
row,SMILES,"activity change, negative = cytotoxicity"
1,COC(=O)C1=C(C)N(CC(C)C)C(=S)NC1c1ccc(Cl)cc1 (centres undefined),-20.8% (inactive)

# Same assay, conditions: HEK293T viability, ATP luminescence (CellTiter-Glo), 48 h; at 35 µM (top of the series)
row,SMILES,"activity change, negative = cytotoxicity"
1,Cc1cccc(N2CCN(C(=O)C3CCC(=O)N3C(C)C)CC2C)c1 (centres undefined),21% (inactive)
2,O=C(NC(=S)NCC1COc2ccccc2O1)c1ccc(Cl)cc1 (centres undefined),-9.32% (inactive)

# Same assay, conditions: HEK293T viability, ATP luminescence (CellTiter-Glo), 48 h; at 42 µM (top of the series)
row,SMILES,"activity change, negative = cytotoxicity"
1,O=C(Cc1cccs1)N1CCN(c2ccccc2)CC1,21.1% (inactive)
2,Cc1ccc(C)c(NC(=O)C2(C)CCCN2C(=O)C(C)C)c1 (centres undefined),-23.6% (inactive)
3,CCCC(=O)N1CCC1(C)C(=O)Nc1cc(C)ccc1C (centres undefined),-18.3% (inactive)

# Reference: PubChem BioAssay AID687005 (Broad Institute, 2013)
